Measurements from PubChem BioAssay (NCI).
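Compound exposure: 48 hours, 5 concentrations, 96-well plates. At the TGI there is no net growth.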

Experiments:
Test in all cases: DTP human tumour cell line panel, 48 h
PC-3 prostate = tested on: PC-3 prostate
HCT-116 colon = tested on: HCT-116 colon
SF-539 CNS = tested on: SF-539 CNS
OVCAR-3 ovarian = tested on: OVCAR-3 ovarian
SNB-75 CNS = tested on: SNB-75 CNS
SK-MEL-2 melanoma = tested on: SK-MEL-2 melanoma
EKVX NSCLC = tested on: EKVX NSCLC
KM12 colon = tested on: KM12 colon
HOP-92 NSCLC = tested on: HOP-92 NSCLC
SW-620 colon = tested on: SW-620 colon
IGROV1 ovarian = tested on: IGROV1 ovarian
SK-MEL-28 melanoma = tested on: SK-MEL-28 melanoma
NCI/ADR-RES ovarian = tested on: NCI/ADR-RES ovarian

C=C1C(=O)OC2C(C)C3C=CC(=O)[C@@]3(C)C(OC(=O)/C(C)=C/C)C1[C@@H]2OC(C)=O (stereo not given in full)
TGI (PC-3 prostate): 1.87 µM
TGI (HCT-116 colon): 0.769 µM
TGI (SF-539 CNS): 0.987 µM
TGI (OVCAR-3 ovarian): 0.744 µM
TGI (SNB-75 CNS): 2.98 µM
TGI (SK-MEL-2 melanoma): 1.18 µM
TGI (EKVX NSCLC): 1.27 µM
TGI (KM12 colon): 3.68 µM
TGI (HOP-92 NSCLC): 1.56 µM
TGI (SW-620 colon): 0.694 µM
TGI (IGROV1 ovarian): 2.05 µM
TGI (SK-MEL-28 melanoma): 1.76 µM
TGI (NCI/ADR-RES ovarian): 0.73 µM

COc1cc(O)c(C(=O)/C=C/c2ccc(O)cc2)cc1Oc1ccc(C(=O)/C=C/c2ccc(O)cc2)c(O)c1
TGI (PC-3 prostate): 19.8 µM
TGI (HCT-116 colon): 4 µM
TGI (SF-539 CNS): 5.51 µM
TGI (OVCAR-3 ovarian): 8.14 µM
TGI (SNB-75 CNS): 7.5 µM
TGI (SK-MEL-2 melanoma): 14.7 µM
TGI (EKVX NSCLC): 5.68 µM
TGI (KM12 colon): 3.18 µM
TGI (HOP-92 NSCLC): 24.9 µM
TGI (SW-620 colon): 11 µM
TGI (IGROV1 ovarian): 3.9 µM
TGI (SK-MEL-28 melanoma): 4.11 µM
TGI (NCI/ADR-RES ovarian): 9.55 µM

N=C(/C=C/c1ccc(-c2cn3cc(/C=C/C(=N)N4CCOCC4)ccc3n2)cc1)N1CCOCC1
TGI (PC-3 prostate): > 100 µM
TGI (HCT-116 colon): > 100 µM
TGI (SF-539 CNS): > 100 µM
TGI (OVCAR-3 ovarian): > 100 µM
TGI (SNB-75 CNS): > 100 µM
TGI (SK-MEL-2 melanoma): > 100 µM
TGI (EKVX NSCLC): > 100 µM
TGI (KM12 colon): > 100 µM
TGI (HOP-92 NSCLC): > 100 µM
TGI (SW-620 colon): > 100 µM
TGI (IGROV1 ovarian): > 100 µM
TGI (SK-MEL-28 melanoma): > 100 µM
TGI (NCI/ADR-RES ovarian): > 100 µM

CCOC(=O)C1(C(=O)OCC)C[C@H]2CON=C2[C@@H]1c1ccc(C(F)(F)F)cc1
TGI (PC-3 prostate): > 100 µM
TGI (HCT-116 colon): > 100 µM
TGI (SF-539 CNS): > 100 µM
TGI (OVCAR-3 ovarian): > 100 µM
TGI (SNB-75 CNS): > 100 µM
TGI (SK-MEL-2 melanoma): > 100 µM
TGI (EKVX NSCLC): 96.6 µM
TGI (KM12 colon): > 100 µM
TGI (HOP-92 NSCLC): > 100 µM
TGI (SW-620 colon): > 100 µM
TGI (IGROV1 ovarian): 28.9 µM
TGI (SK-MEL-28 melanoma): > 100 µM
TGI (NCI/ADR-RES ovarian): > 100 µM

CC1(c2cccc(C3CCC4(C=CC3=O)OCCO4)c2)OCCO1 (stereo not given)
TGI (PC-3 prostate): 31.1 µM
TGI (HCT-116 colon): 13.2 µM
TGI (SF-539 CNS): 28.5 µM
TGI (OVCAR-3 ovarian): 13 µM
TGI (SNB-75 CNS): 30.3 µM
TGI (SK-MEL-2 melanoma): 27.4 µM
TGI (EKVX NSCLC): 37.5 µM
TGI (KM12 colon): 33.4 µM
TGI (HOP-92 NSCLC): 17.8 µM
TGI (SW-620 colon): 8.07 µM
TGI (IGROV1 ovarian): 32.7 µM
TGI (SK-MEL-28 melanoma): 29.6 µM
TGI (NCI/ADR-RES ovarian): 31.5 µM

S=C1c2cc(Cl)ccc2NC(=NC2CCCC2)C2CSCN12 (stereo not given)
TGI (PC-3 prostate): > 100 µM
TGI (HCT-116 colon): > 100 µM
TGI (SF-539 CNS): > 100 µM
TGI (OVCAR-3 ovarian): > 100 µM
TGI (SNB-75 CNS): > 100 µM
TGI (SK-MEL-2 melanoma): > 100 µM
TGI (EKVX NSCLC): > 100 µM
TGI (KM12 colon): > 100 µM
TGI (HOP-92 NSCLC): > 100 µM
TGI (SW-620 colon): > 100 µM
TGI (IGROV1 ovarian): > 100 µM
TGI (SK-MEL-28 melanoma): > 100 µM
TGI (NCI/ADR-RES ovarian): > 100 µM

Cc1nc2c(=O)[nH]c(=O)nc-2n(CCO)c1C
TGI (PC-3 prostate): > 100 µM
TGI (HCT-116 colon): > 100 µM
TGI (SF-539 CNS): > 100 µM
TGI (OVCAR-3 ovarian): > 100 µM
TGI (SNB-75 CNS): > 100 µM
TGI (SK-MEL-2 melanoma): > 100 µM
TGI (EKVX NSCLC): > 100 µM
TGI (KM12 colon): > 100 µM
TGI (HOP-92 NSCLC): > 100 µM
TGI (SW-620 colon): > 100 µM
TGI (IGROV1 ovarian): > 100 µM
TGI (SK-MEL-28 melanoma): > 100 µM
TGI (NCI/ADR-RES ovarian): > 100 µM

CCOC(=O)/C(O)=C(\C=N\C(=S)Nc1ccc(Cl)c(Cl)c1)C(=O)OCC
TGI (PC-3 prostate): > 100 µM
TGI (HCT-116 colon): > 100 µM
TGI (SF-539 CNS): > 100 µM
TGI (OVCAR-3 ovarian): > 100 µM
TGI (SNB-75 CNS): > 100 µM
TGI (SK-MEL-2 melanoma): > 100 µM
TGI (EKVX NSCLC): > 100 µM
TGI (KM12 colon): > 100 µM
TGI (HOP-92 NSCLC): > 100 µM
TGI (SW-620 colon): > 100 µM
TGI (IGROV1 ovarian): > 100 µM
TGI (SK-MEL-28 melanoma): > 100 µM
TGI (NCI/ADR-RES ovarian): > 100 µM

Cc1ccc(S(=O)/C=C(\NC(=O)OCc2ccccc2)C(F)(F)F)cc1 (stereo not given)
TGI (PC-3 prostate): > 100 µM
TGI (HCT-116 colon): > 100 µM
TGI (SF-539 CNS): 92.9 µM
TGI (OVCAR-3 ovarian): > 100 µM
TGI (SNB-75 CNS): 91.4 µM
TGI (SK-MEL-2 melanoma): > 100 µM
TGI (EKVX NSCLC): > 100 µM
TGI (KM12 colon): > 100 µM
TGI (HOP-92 NSCLC): > 100 µM
TGI (SW-620 colon): > 100 µM
TGI (IGROV1 ovarian): > 100 µM
TGI (SK-MEL-28 melanoma): 72 µM
TGI (NCI/ADR-RES ovarian): > 100 µM

C(=N\NC1=NCCCN1)/c1ccc(-c2cn3cc(/C=N/NC4=NCCCN4)ccc3n2)cc1
TGI (PC-3 prostate): > 57.3 µM
TGI (HCT-116 colon): > 100 µM
TGI (SF-539 CNS): > 100 µM
TGI (OVCAR-3 ovarian): > 100 µM
TGI (SNB-75 CNS): > 100 µM
TGI (SK-MEL-2 melanoma): > 100 µM
TGI (EKVX NSCLC): > 100 µM
TGI (KM12 colon): > 100 µM
TGI (HOP-92 NSCLC): > 100 µM
TGI (SW-620 colon): > 100 µM
TGI (IGROV1 ovarian): > 100 µM
TGI (SK-MEL-28 melanoma): > 100 µM
TGI (NCI/ADR-RES ovarian): > 100 µM
